Measurements taken from patent publication US20260042764A1, “COMPOSITIONS AND METHODS FOR INHIBITION OF KRAS” (TheRas, Inc., priority 2022, published 2026).

Legend:
[1] = target: T1, Avi-KRAS WT (1-169) GppNHp/RAF1 RBD-3xFLAG (52-151) (Homo sapiens, UniProt P01116); assay: Raf1-KRAS WT-GppNHP disruption HTRF assay (Biological Example 1); format: binding
T1 construct: Avi-KRAS WT (1-169)
In short: (§1)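 Using HTRF, the loss of KRAS–effector RAF1 complex was quantified in 50 mM Tris pH 7.5 buffer with 100 mM NaCl and 0.1% BSA. The protein step and reagent step ran 1 h each at room temperature. Activity normalized with DMSO taken as 100%.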

HCT116 cells (KRAS G13D) = assay: 3D Cell viability assay in HCT116 cells (Biological Example 6); format: cell-based; conditions: HCT116 (KRAS G13D) spheroids, 72 hours
In short: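 Luminescent ATP read-out (CellTiter-Glo 3D) after 72 h compound exposure gives viability of preformed spheroids. Cells were seeded at 1000 per well in low-attachment plates and left 48 h to aggregate before dosing with nine three-fold concentrations at 0.25% DMSO.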

SW1900 cells (KRAS G12D) = assay: Cell-based pERK HTRF assay in SW1900 cells (Biological Example 5)
In short: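 Inhibition of ERK phosphorylation is measured after cells grown in 10% FBS medium receive test compound for two hours at 37° C across nine threefold-spaced concentrations. Lysates are incubated with HTRF antibody pair for 24 h at 4° C, and EC50 is derived from the 665/620 nm signal ratio.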

[2] = target: T2, Avi-KRAS G12D (1-169) GppNHp/RAF1 RBD-3xFLAG (52-151) (Homo sapiens, UniProt P01116, G12D); assay: Raf1-KRAS G12D-GppNHP disruption HTRF assay (Biological Example 1); format: binding
T2 construct: Avi-KRAS G12D (1-169)
T2 sequence (P01116 1-169 isoform P01116-2 G12D): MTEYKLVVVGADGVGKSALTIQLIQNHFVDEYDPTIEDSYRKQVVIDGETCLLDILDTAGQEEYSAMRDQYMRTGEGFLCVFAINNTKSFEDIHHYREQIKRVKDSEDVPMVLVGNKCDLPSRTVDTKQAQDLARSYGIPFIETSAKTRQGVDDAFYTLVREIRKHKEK
In short: as §1

SW620 cells (KRAS G12V) = assay: Cell-based pERK HTRF assay in SW620 cell (Biological Example 4)
In short: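 Read-out: HTRF pERK signal (excitation 320 nm, emission 615 nm) from lysates of SW620 cells after 4 h compound exposure. Dose range was 9 points, half-log steps from 1 μM, in 0.25% DMSO; antibody incubation ran 4–24 h at room temperature.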

[3] = Homo sapiens, SW1990, SW1990 cells (text: SW1900, KRAS G12D)
[4] = Homo sapiens, SW-620, SW620 (KRAS G12V) cells, pERK HTRF

T1 sequence (P01116 1-169 isoform P01116-2): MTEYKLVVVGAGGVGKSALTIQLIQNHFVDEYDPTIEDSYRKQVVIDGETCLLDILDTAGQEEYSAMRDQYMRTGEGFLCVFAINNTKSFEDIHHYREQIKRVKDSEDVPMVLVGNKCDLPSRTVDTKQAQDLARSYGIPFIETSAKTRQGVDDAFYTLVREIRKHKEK

CC(=O)N1CC[C@@H](N(C)c2nc(OC[C@@]34CCCN3C[C@H](F)C4)nc3c(F)c(-c4ccc(F)c5sc(N)c(C#N)c45)c(Cl)cc23)[C@H]1C [Compound 398] was tested, and the IC50 ([1]; KRAS WT-GppNHp/RAF1 RBD HTRF) was 100 to 1000 nM, the IC50 (HCT116 cells (KRAS G13D); Homo sapiens, HCT-116) was 100 to 1000 nM and the IC50 (SW1900 cells (KRAS G12D); [3]) was ≤ 100 nM. The IC50 ([2]; KRAS G12D-GppNHp/RAF1 RBD HTRF) was 100 to 1000 nM and the IC50 (SW620 cells (KRAS G12V); [4]) was < 100 nM.

In the case of C[C@@H]1[C@H](N(C)c2nc(OC[C@@]34CCCN3C[C@H](F)C4)nc3c(F)c(-c4ccc(F)c5sc(N)c(C#N)c45)c(C(F)(F)F)cc23)CC(=O)N1C [Compound 440], the IC50 ([1]; KRAS WT-GppNHp/RAF1 RBD HTRF) is reported as 100 to 1000 nM, the IC50 (HCT116 cells (KRAS G13D); Homo sapiens, HCT-116) is reported as > 1000 nM and the IC50 (SW1900 cells (KRAS G12D); [3]) is reported as ≤ 100 nM. The IC50 ([2]; KRAS G12D-GppNHp/RAF1 RBD HTRF) was 100 to 1000 nM and the IC50 (SW620 cells (KRAS G12V); [4]) was < 100 nM.

In the case of CCC(=O)N1C[C@@H](N(CC)c2nc(OC[C@@]34CCCN3C[C@H](F)C4)nc3c(F)c(-c4ccc(F)c5sc(N)c(C#N)c45)c(C(F)(F)F)cc23)C[C@H]1C [Compound 442], the IC50 ([1]; KRAS WT-GppNHp/RAF1 RBD HTRF) is reported as 100 to 1000 nM, the IC50 (HCT116 cells (KRAS G13D); Homo sapiens, HCT-116) is reported as 100 to 1000 nM and the IC50 (SW1900 cells (KRAS G12D); [3]) is reported as ≤ 100 nM. The IC50 ([2]; KRAS G12D-GppNHp/RAF1 RBD HTRF) was 100 to 1000 nM and the IC50 (SW620 cells (KRAS G12V); [4]) was < 100 nM.

CCN(c1nc(OCC23CCCN2CC(F)C3)nc2c(F)c(-c3ccc(F)c4sc(N)c(C#N)c34)c(C(F)(F)F)cc12)C1CC(C)N(C(=O)C2CC2(F)F)C1 (stereo not drawn) [Compound 732] was tested, and the IC50 ([1]; KRAS WT, GppNHp-loaded, class symbols) was 100 to 1000 nM, the IC50 (HCT116 cells (KRAS G13D)) was 100 to 1000 nM and the IC50 (SW1900 cells (KRAS G12D); SW1990 cells (text: SW1900, KRAS G12D)) was ≤ 100 nM. For the same compound, the IC50 ([2]; KRAS G12D, GppNHp-loaded, class symbols) was < 100 nM, the IC50 (SW620 cells (KRAS G12V); SW620 (KRAS G12V) cells) was < 100 nM and the IC50 (SW620 cells (KRAS G12V); SW620 (KRAS G12V) cells, pERK HTRF, class symbols) was < 100 nM.
